Measured values published in PMC12238850, “Molecular determinants for recognition of serotonylated chromatin” (Nucleic Acids Research, 2025).
Numbering of substitutions follows the chain as printed. Like-named read-outs stand apart in the source and are kept apart here.

Assays:
Assay type in all cases: binding
[1] = biological target: T1, PHF2 PHD (1–66, GST-tagged) (Homo sapiens, UniProt O75151); test: ITC of GST-tagged PHF2 PHD
T1 construct: PHF2 (1–66); made in house; host or cells: E. coli BL21(DE3)
T1 sequence (O75151 1-66): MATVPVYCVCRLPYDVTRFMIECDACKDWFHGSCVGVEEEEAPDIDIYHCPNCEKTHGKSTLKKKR
From the text: (§1) The coding sequences of Mus musculus Taf3-PHD domain (residues 857–924) and Homosapiens PHF2 (1–66), PHF8 (37–102), and BPTF(2) (2865–2921) were cloned into the pGEX2T-derived vector, pRP265NB, for bacterial expression of GST-tagged proteins. Note that the PHD fingers of M. musculus Taf3 and H. sapiens TAF3 differ in a single amino acid. A901 in mouse corresponds to T899 in human. Here, amino acid numbering corresponds to mouse Taf3 isoform 1 with UniProt ID: Q5HZG4, accessible at https://www.uniprot.org/uniprotkb/Q5HZG4/entry. Single or double mutations were introduced by mutagenesis polymerase chain reaction and validated by Sanger sequencing. A single colony of freshly transformed BL21(DE3) Escherichia coli bacteria with the corresponding construct was grown in Luria broth (LB) medium supplemented with 50 μg/ml ampicillin until an OD600 of 0.7. […]
(§2) ITC experiments were performed at 20°C with a MicroCal VP-ITC microcalorimeter (Malvern) by sequential injection of 10 μl at 300 μM histone peptide during 20 s into the sample cell containing 30 or 15 μM of GST-Taf3 (wild type or mutant) or GST-BPTF, GST-PHF2, and GST-PHF8 PHDs in ITC buffer (100 mM NaCl, 20 mM Tris–HCl, pH 7.5). […] ITC data were subsequently analysed and fitted with the one-site binding model in the MicroCal ITC Origin Analysis software 7.0 (Table 1, Figs 3B and 5A, Supplementary Table S3, and Supplementary Fig. S10). […]

[2] = biological target: T2, TAF3 P881E (GST-tagged PHD) (Mus musculus, UniProt Q5HZG4, P881E); test: ITC of GST-tagged Taf3-PHD P881E
T2 construct: Mus musculus Taf3-PHD domain (residues 857–924); made in house; host or cells: E. coli BL21(DE3)
T2 sequence (Q5HZG4 857-924 P881E): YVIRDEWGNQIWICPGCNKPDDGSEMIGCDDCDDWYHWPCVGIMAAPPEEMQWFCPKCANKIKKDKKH
From the text: as §1, §2

[3] = biological target: T3, TAF3 A902L (GST-tagged PHD) (Mus musculus, UniProt Q5HZG4, A902L); test: ITC of GST-tagged Taf3-PHD A902L
T3 construct: Mus musculus Taf3-PHD domain (residues 857–924); made in house; host or cells: E. coli BL21(DE3)
T3 sequence (Q5HZG4 857-924 A902L): T2 sequence (Q5HZG4 857-924 P881E) with E25P, A46L
From the text: as §1, §2

[4] = biological target: T4, TAF3 P881E W894F (GST-tagged PHD) (Mus musculus, UniProt Q5HZG4, P881E/W894F); test: ITC of GST-tagged Taf3-PHD P881E W894F
T4 construct: Mus musculus Taf3-PHD domain (residues 857–924); made in house; host or cells: E. coli BL21(DE3)
T4 sequence (Q5HZG4 857-924 P881E/W894F): T2 sequence (Q5HZG4 857-924 P881E) with W38F
From the text: as §1, §2

[5] = biological target: T5, BPTF(2) PHD (2865–2921, GST-tagged) (Homo sapiens, UniProt Q12830); test: ITC of GST-tagged BPTF(2) PHD
T5 construct: BPTF(2) (2865–2921); made in house; host or cells: E. coli BL21(DE3)
From the text: as §1, §2

[6] = biological target: T6, PHF8 PHD (37–102, GST-tagged) (Homo sapiens, UniProt Q9UPP1); test: ITC of GST-tagged PHF8 PHD
T6 construct: PHF8 (37–102); made in house; host or cells: E. coli BL21(DE3)
T6 sequence (Q9UPP1 37-102): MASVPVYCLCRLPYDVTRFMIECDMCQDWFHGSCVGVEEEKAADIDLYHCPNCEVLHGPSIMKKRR
From the text: as §1, §2

[7] = ITC, 20°C, 100 mM NaCl, 20 mM Tris–HCl, pH 7.5, one-site model, ± = standard error of fit, read-out: K D

Structure (SMILES) | Kd [1, 7] [nM] | Kd [2, 7] [nM] | Kd [3, 7] [nM] | Kd [4, 7] [nM] | Kd [5, 7] [nM] | Kd [6, 7] [nM] | Kd [1] [nM] | Kd [2] [nM] | Kd [3] [nM] | Kd [4] [nM] | Kd [5] [nM] | Kd [6] [nM]
C[C@H](N)C(=O)N[C@@H](CCCNC(=N)N)C(=O)N[C@H](C(=O)N[C@@H](CCCC[N+](C)(C)C)C(=O)N[C@@H](CCC(N)=O)C(=O)N[C@H](C(=O)N[C@@H](C)C(=O)N[C@@H](CCCNC(=N)N)C(=O)N[C@@H](CCCCN)C(=O)N[C@@H](CO)C(=O)N[C@H](C(=O)NCC(N)=O)[C@@H](C)O)[C@@H](C)O)[C@@H](C)O [H3K4me3] | 286 ± 23 | 148 ± 4 | 166 ± 17 | 123 ± 10 | 1300 ± 49 | 418 ± 20 |  |  |  |  |  | 
C[C@H](N)C(=O)N[C@@H](CCCNC(=N)N)C(=O)N[C@H](C(=O)N[C@@H](CCCC[N+](C)(C)C)C(=O)N[C@@H](CCC(=O)NCCc1c[nH]c2ccc(O)cc12)C(=O)N[C@H](C(=O)N[C@@H](C)C(=O)N[C@@H](CCCNC(=N)N)C(=O)N[C@@H](CCCCN)C(=O)N[C@@H](CO)C(=O)N[C@H](C(=O)NCC(N)=O)[C@@H](C)O)[C@@H](C)O)[C@@H](C)O [H3K4me3Q5ser] |  |  |  |  |  |  | 201 ± 22 | 136 ± 4 | 51 ± 3 | 111 ± 14 | 1240 ± 50 | 275 ± 19
